Test results reported in patent US20050032784A1, “Combination drug therapy for treating hypertension” (University of Florida Research Foundation, Inc., priority 2003, published 2005).

Experiments:
[1] = test system: hypertensive patients randomized to the calcium antagonist strategy; test: INVEST subanalysis: BP reduction by addition of HCTZ to verapamil SR/trandolapril; format: in vivo
Method: Subanalysis Design: INVEST afforded an opportunity to analyze unique and specific combinations of antihypertensive drugs due to the data accumulated for prescription date, drug, regimen, and dose. One subanalysis was performed to evaluate the incremental benefit of BP reduction by the addition of HCTZ to various dose combinations of verapamil SR and trandolapril in patients randomized to the calcium antagonist strategy. […]
Patients who received the verapamil SR/trandolapril combination as their first randomized drug prescription in INVEST, and who received no other drug prescription or gap in medication until their first HCTZ prescription added to the initial verapamil SR/trandolapril combination dose, were selected for this subgroup analysis. […] Summary statistics for change from baseline for SBP and DBP to the last observation at each dose level for both the verapamil SR/trandolapril dual combination and the verapamil SR/trandolapril/HCTZ triple combination were analyzed. […] In this subanalysis the incremental effect of HCTZ on BP reduction was evaluated for any dose of HCTZ.

[2] = test system: CAD patients with hypertension; test: INVEST trial: new diagnosis of diabetes; format: in vivo; conditions: for HR of developing diabetes: vs NCAS not taking trandolapril or hydrochlorothiazide; for Effect of add-on medication on risk of diabetes: preliminary analyses adjusted for 5 baseline covariates and average daily dose
Description: The primary outcome was the first occurrence of death (all-cause), nonfatal MI, or nonfatal stroke by intention-to-treat analysis. The MI and stroke definitions are detailed on the INVEST Web site. These 3 components individually were the main secondary outcomes. Additional outcomes included time to most serious event (ranked from death as most serious, to MI, to stroke as least serious), cardiovascular death (definite or presumed), angina, cardiovascular hospitalizations, blood pressure control, cancer, Alzheimer disease, Parkinson disease, and gastrointestinal tract bleeding. Shortly after the study started, new information became available on the potential for ACE inhibitors to prevent or delay the onset of diabetes. Accordingly, at the recommendation of the independent data safety and monitoring committee, new diagnosis of diabetes was added as an outcome early in the recruitment phase of the study.
Of the 8098 CAS patients without diabetes at entry, 569 (7.03%) were diagnosed as having diabetes during follow-up. Of the 8078 NCAS patients without diabetes at entry, 665 (8.23%) were diagnosed as having diabetes during follow-up (RR, 0.85; 95% CI, 0.77-0.95). Patients in the CAS group were also less likely to die or develop diabetes compared with patients in the NCAS group (1050 [12.97%] vs 1177 [14.57%]; RR, 0.89; 95% CI, 0.82-0.96) and less likely to have an event in the primary outcome cluster or develop diabetes (1185 [14.63%] vs 1313 [16.25%]; RR, 0.90; 95% CI, 0.84-0.97). To explore possible explanations for reduced risk of diabetes, we conducted preliminary analyses adjusting for the 5 pre-specified baseline covariates (age, race, sex, prior MI, and prior heart failure) and included factors for average daily dose of add-on medication (trandolapril and/or hydrochlorothiazide). […] A 2-mg dose of trandolapril was associated with a HR of 0.86 (95% CI, 0.74-1.00) and a 4-mg dose was associated with a HR of 0.77 (95% CI, 0.62-0.96). In the NCAS group, a 2-mg dose of trandolapril was associated with a HR of 0.99 (95% CI, 0.90-1.08) and a 4-mg dose was associated with a HR of 0.98 (95% CI, 0.82-1.18). […] Compared with those in the NCAS group not taking either trandolapril or hydrochlorothiazide, the addition of 12.5 mg of hydrochlorothiazide was associated with a HR of 1.17 (95% CI, 1.09-1.25) and 25 mg of hydrochlorothiazide was associated with a HR of 1.36 (95% CI, 1.18-1.57).

[3] = Group 1, added to verapamil SR/trandolapril 180/2 mg
[4] = Group 2, added to verapamil SR/trandolapril 240/2 mg
[5] = Group 3, added to verapamil SR/trandolapril 240/4 mg

SMILES	Decrease of mean diastolic BP with the addition of HCTZ [1, 3]	Decrease of mean systolic BP after the addition of HCTZ [1, 3]	Decrease of mean diastolic BP with the addition of HCTZ [1, 4]	Decrease of mean systolic BP after the addition of HCTZ [1, 4]	Decrease of mean diastolic BP with the addition of HCTZ [1, 5]	Decrease of mean systolic BP after the addition of HCTZ [1, 5]	Incremental BP reduction with addition of HCTZ ([1]; each verapamil SR/trandolapril combination group, listed as HCTZ)	HR of developing diabetes ([2]; 25 mg, CAS group)	HR of developing diabetes ([2]; 25 mg, NCAS group)	HR of developing diabetes ([2]; addition of 12.5 mg, CAS group)	HR of developing diabetes ([2]; addition of 12.5 mg, NCAS group)	Effect of add-on medication on risk of diabetes [2]	HR of developing diabetes ([2]; 2-mg dose, CAS group)	HR of developing diabetes ([2]; 2-mg dose, NCAS group)	HR of developing diabetes ([2]; 4-mg dose, CAS group)	HR of developing diabetes ([2]; 4-mg dose, NCAS group)
NS(=O)(=O)c1cc2c(cc1Cl)NCNS2(=O)=O [hydrochlorothiazide]	1.1 mm Hg	7.1 mm Hg	4.2 mm Hg	6.5 mm Hg	2.3 mm Hg	3.2 mm Hg	clinically significant, incremental BP reduction	1.28	1.36	1.11	1.17	non-statistically significant increased risk of diabetes				
CCOC(=O)[C@H](CCc1ccccc1)N[C@@H](C)C(=O)N1[C@H](C(=O)O)C[C@H]2CCCC[C@@H]21 [trandolapril]												appeared to confer a protective effect in the CAS group	0.86	0.99	0.77	0.98
